Columns and labels:
Format in all cases: cell-based
[1] = target: T1, saT1R2a/R3 (Sparus aurata, UniProt A0A671TK95+A0A671VZB3); experiment: saT1R2a/R3 heterodimer transiently transfected in stable pGL3-NFAT-luc-HEK293 (Cl.3) cells, luciferase reporter; details: saT1R2a/R3; tested 1–500 mM
T1 sequence (A0A671TK95 20-825): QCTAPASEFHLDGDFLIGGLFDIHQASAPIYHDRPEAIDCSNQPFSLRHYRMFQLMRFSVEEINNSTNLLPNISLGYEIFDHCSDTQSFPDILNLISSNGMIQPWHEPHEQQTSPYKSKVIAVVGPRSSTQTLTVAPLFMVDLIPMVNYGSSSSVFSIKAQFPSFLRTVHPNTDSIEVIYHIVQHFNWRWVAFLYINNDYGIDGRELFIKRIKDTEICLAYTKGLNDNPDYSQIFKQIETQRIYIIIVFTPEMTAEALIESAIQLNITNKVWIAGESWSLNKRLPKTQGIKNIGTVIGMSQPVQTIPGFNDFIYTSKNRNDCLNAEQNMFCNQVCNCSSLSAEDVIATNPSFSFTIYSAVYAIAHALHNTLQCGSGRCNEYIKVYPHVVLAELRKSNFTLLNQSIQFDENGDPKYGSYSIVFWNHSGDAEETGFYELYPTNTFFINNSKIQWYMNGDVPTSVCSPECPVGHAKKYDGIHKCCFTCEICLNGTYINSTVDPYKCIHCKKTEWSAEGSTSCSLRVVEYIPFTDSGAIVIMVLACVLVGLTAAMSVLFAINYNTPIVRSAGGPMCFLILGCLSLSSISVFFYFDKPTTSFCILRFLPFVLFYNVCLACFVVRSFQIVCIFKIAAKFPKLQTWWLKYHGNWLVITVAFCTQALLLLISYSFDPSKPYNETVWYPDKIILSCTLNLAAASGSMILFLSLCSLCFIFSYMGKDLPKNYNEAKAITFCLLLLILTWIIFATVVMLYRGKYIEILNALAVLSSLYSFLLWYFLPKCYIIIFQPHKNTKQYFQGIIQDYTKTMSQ
T1 sequence (A0A671VZB3 24-860): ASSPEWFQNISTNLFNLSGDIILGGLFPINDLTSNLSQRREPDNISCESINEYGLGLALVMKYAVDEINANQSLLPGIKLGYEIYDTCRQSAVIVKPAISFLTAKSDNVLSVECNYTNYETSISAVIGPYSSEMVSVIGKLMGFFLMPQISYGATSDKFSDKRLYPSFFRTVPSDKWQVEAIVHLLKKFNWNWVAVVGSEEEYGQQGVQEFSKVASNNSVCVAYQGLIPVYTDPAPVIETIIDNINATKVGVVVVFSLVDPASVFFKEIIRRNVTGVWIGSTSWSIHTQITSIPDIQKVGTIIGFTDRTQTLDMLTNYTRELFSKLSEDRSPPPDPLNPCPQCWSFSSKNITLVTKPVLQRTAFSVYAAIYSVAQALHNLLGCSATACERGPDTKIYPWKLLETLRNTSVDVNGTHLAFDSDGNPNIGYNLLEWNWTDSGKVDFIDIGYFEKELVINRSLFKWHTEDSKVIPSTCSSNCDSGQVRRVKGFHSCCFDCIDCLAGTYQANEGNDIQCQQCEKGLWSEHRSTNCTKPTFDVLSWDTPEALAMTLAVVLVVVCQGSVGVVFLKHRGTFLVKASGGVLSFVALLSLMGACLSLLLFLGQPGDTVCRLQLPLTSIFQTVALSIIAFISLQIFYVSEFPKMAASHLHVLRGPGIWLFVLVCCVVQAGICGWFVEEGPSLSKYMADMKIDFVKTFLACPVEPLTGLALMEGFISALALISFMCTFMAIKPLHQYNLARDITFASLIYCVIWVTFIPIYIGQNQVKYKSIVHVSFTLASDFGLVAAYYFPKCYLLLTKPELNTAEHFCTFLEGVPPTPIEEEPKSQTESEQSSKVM
Text: (§1) Figure 6 Amino acid Log-dose response curves of activation in heterologous co-transfected (Cl.3) cells with saT1R1/3 (green dots), saT1R2a/3 (red squares) and saT1R2b/3 (black triangles) heterodimers. Evaluation of L-AA responses was based on the RLU mean ± SEM of four independent determinations normalized to the mean response of the same transfections stimulated with reduced assay medium (Basal Medium Eagle w/o L-glutamate (BME) + 1% FBS), and expressed as the percentage relative to basal levels (BL).
(§2) HEK293 cells were cultured in standard medium DMEM (Gibco, Thermo Fisher, Saint Louis, MO, USA) containing 10% FBS, penicillin (100 U/mL) and streptomycin ([…]) at 37 °C, with a humidified atmosphere at 5% CO2. pGL3-NFAT-luc-HEK293 stable clones were generated by co-transfections of pGL3-NFAT-luc and tgCMV/HyTK plasmids (50:1), the latter harboring the hygromycin phosphotransferase gene, using Lipofectamine LTX according to supplier’s protocols (Thermo Fisher, Saint Louis, MO, USA). Initially, HEK293 cells were selected using DMEM containing 400 μg/mL hygromycin B (Sigma, Darmstadt, Germany) in 24-well plates for two weeks; 24 colonies were further grown out in 96-well plates under reduced hygromycin selection (200 µg/mL) for three weeks. Potentially resistant NFAT-luc-HEK293 clones (n = 22) were validated after incubation in assay medium (DMEM + 1% FBS) containing PMA or Ionomycin (Sigma, Darmstadt, Germany) for 18 h (triplicates, 50,000 cells/well). Luciferase activity was quantified with ONE-Glo™ EX Reagent Kit (Promega, Madison, WI, USA) using a 96-microplate TECAN reader (Trading AG, Switzerland).
(§3) saT1Rs (saT1R1, saT1R2a, saT1R2b saT1R3) and saGαi1-2 genes were RT-PCR amplified using 5’ and 3’ flanking primers carrying HindIII and XhoI restriction sites, respectively. Gel-purified fragments were cloned into pGEM-T Easy vectors, re-sequenced, digested and subcloned into pcDNA™3 (Invitrogen, Carlsbad, CA, USA). Effective saT1R cloning into pcDNA™3 was further verified by HindIII/XhoI digestion. Transient co-transfections were done in 6-well plates (confluence ~70–80%) using 100 μL of reduced serum medium (Opti-MEM, Gibco, Thermo Fisher, Saint Louis, MO, USA) containing 150 ng of each selected pcDNA™3 construct, 1:10 charge ratio of Enhanced Green Fluorescent expressing construct (EGFP; positive control), and pBluescript II SK (+) vector DNA (Addgene, Watertown, MA, USA) up to 1 µg of totally transfected DNA. Following 24 h incubation, cells were washed with fresh standard medium and plated in polylysine treated plates for additional 24 h. Cells were then stimulated with L-AAs and sugar compounds for 18 h in a reduced assay medium (BME w/o L-glutamate; Gibco, Thermo Fisher, Saint Louis, MO, USA) + 1% FBS), to prevent unspecific Ca^2+/NFAT signaling activation and potential saT1R desensitization. All L-AAs and sugars used for in vitro experiments were obtained from Merck KGaA (Darmstadt, Germany).

[2] = target: T2, saT1R2b/R3 (Sparus aurata, UniProt A0A671TG56+A0A671VZB3); experiment: saT1R2b/R3 heterodimer transiently transfected in stable pGL3-NFAT-luc-HEK293 (Cl.3) cells, luciferase reporter; details: saT1R2b/R3; tested 1–500 mM
T2 sequence (A0A671TG56 20-821): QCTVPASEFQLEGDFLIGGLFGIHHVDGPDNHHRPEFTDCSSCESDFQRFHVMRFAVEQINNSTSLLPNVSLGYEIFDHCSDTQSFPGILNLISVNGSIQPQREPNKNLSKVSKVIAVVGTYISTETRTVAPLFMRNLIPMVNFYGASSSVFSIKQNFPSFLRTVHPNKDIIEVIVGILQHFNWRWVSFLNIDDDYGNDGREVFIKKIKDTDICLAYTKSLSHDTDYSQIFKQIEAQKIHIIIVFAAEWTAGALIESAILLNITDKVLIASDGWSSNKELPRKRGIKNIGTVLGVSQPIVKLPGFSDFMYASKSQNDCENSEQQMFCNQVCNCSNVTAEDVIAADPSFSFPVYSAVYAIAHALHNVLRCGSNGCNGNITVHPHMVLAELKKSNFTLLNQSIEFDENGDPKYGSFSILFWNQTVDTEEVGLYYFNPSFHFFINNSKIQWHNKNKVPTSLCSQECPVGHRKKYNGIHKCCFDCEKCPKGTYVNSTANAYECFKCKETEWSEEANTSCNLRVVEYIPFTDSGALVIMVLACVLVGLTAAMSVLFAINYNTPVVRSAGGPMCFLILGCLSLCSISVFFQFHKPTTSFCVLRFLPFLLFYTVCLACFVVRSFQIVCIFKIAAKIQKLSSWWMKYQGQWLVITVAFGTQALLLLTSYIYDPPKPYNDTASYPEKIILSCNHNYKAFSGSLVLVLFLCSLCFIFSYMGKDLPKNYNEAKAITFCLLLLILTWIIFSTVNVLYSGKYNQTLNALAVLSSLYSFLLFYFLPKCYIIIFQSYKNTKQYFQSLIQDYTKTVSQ
T2 sequence (A0A671VZB3 24-860): T1 sequence (A0A671VZB3 24-860)
Text: as §1, §2, §3

[3] = system: pGL3-NFAT-luc reporter (Ca2+/NFAT signaling); experiment: pGL3-NFAT-luc construct responsiveness in transiently transfected HEK293 cells; details: 10-fold serial dilutions
Text: The luciferase reporter system used in the present study is based on a pGL3-plasmid including three (N)uclear (F)actor of (A)ctivated T cells (NFAT)-responsive elements located upstream of an interleukin-2 (IL2) minimal promoter driving expression of the firefly luciferase reporter gene (pGL3-NFAT-luc plasmid; Addgene (Watertown, MA, USA), cat. number. 17870). To evaluate pGL3-NFAT-luc construct responsiveness, transiently transfected HEK293 cells were stimulated with Phorbol 12-myristate 13-acetate (PMA) and ionomycin, two compounds known to modulate NFAT signaling by mobilization of intracellular Ca^2+ storages.
Figure 4 Evaluation of pGL3-NFAT-luc construct responsiveness to 10-fold serial dilutions to PMA (A) and ionomycin (B) in transiently transfected HEK293 cells. RLU%: Relative Luminescence Unit percentage. […] BL (Basal Levels) = 100% RLU. Different lowercase letters (a,b) on top of bars indicate significant differences (p < 0.05) between concentrations, assessed by one-way ANOVA followed by Tukey’s Multiple Comparison Test (GraphPad Prism version 5.00 Software, La Jolla, CA, USA). […]

## OC[C@@H]1O[C@@H](O[C@@]2(CO)O[C@@H](CO)[C@H](O)[C@H]2O)[C@@H](O)[C@H](O)[C@H]1O [L-Sucrose]
[1]
  concentration with significant activation: 100 mM
[2]
  concentration with significant activation: 100 mM

## CCCCCCCCCCCCCC(=O)O[C@@H]1[C@@H](C)[C@@]2(O)[C@@H](C=C(CO)C[C@]3(O)C(=O)C(C)=C[C@@H]23)[C@@H]2C(C)(C)[C@]12OC(C)=O [PMA, Phorbol 12-myristate 13-acetate]
[3]
  luminescence response of pGL3-NFAT-luc construct: significant luminescence dose-response increases

## C[C@H](CCC(=O)O)C[C@H](C)C[C@H](C)C(=O)/C=C(\O)[C@H](C)C[C@H](C)C/C=C/[C@@H](C)[C@@H](O)[C@@H](C)[C@@H](O)C[C@@H]1CC[C@@](C)([C@H]2CC[C@@](C)([C@@H](C)O)O2)O1 [ionomycin]
[3]
  luminescence response of pGL3-NFAT-luc construct: significant luminescence dose-response increases

Reference: article PMC7594079, “Insights into the Function and Evolution of Taste 1 Receptor Gene Family in the Carnivore Fish Gilthead Seabream (Sparus aurata)” (International Journal of Molecular Sciences, 2020)
